Data as given in patent publication US6943158B2, “Diazinopyrimidines” (Roche Palo Alto LLC, priority 2002, dated 2005).

How the values were obtained:
p38 MAP kinase = molecular target: T1, p38 MAP kinase (Homo sapiens, UniProt Q16539); test: in vitro p38 MAP kinase inhibition assay (transfer of γ-33P from ATP to Myelin Basic Protein); format: biochemical; conditions: phosphorylated recombinant p38 MAP kinase, MBP substrate, γ-33P-ATP; read-out: p-38 inhibitory activity, IC50
T1 construct: made in house; host or cells: E. coli (co-expressed with SEK-1 and MEKK to phosphorylate it)
Procedure: This example illustrates an in vitro assay procedure for determining p38 MAP kinase inhibition by a compound of Formula I.
The p-38 MAP kinase inhibitory activity of compounds of this invention in vitro is determined by measuring the transfer of the γ-phosphate from γ-^33P-ATP by p-38 kinase to Myelin Basic Protein (MBP), using the a minor modification of the method described in Ahn, N. G.; et al. J. Biol. Chem. Vol. 266(7), 4220-4227, (1991).
The phosphorylated form of the recombinant p38 MAP kinase was expressed with SEK-1 and MEKK in E. Coli and then purified by affinity chromatography using a Nickel column.
The phosphorylated p38 MAP kinase is diluted in kinase buffer (20 mM 3-(N-morpholino)propanesulfonic acid, pH 7.2, 25 mM β-glycerol phosphate, 5 mM ethylene glycol-bis(beta-aminoethyl ether)-N,N,N′,N′-tetraacetic acid, 1 mM sodium vanadate, 1 mM dithiothreitol, 40 mM magnesium chloride). Test compound dissolved in DMSO or only DMSO (control) is added and the samples are incubated for 10 min at 30° C. The kinase reaction is initiated by the addition of a substrate cocktail containing MBP and γ-^33P-ATP. […] The phosphorylated MBP is then separated from the residual γ-^33P-ATP using a phosphocellulose membrane (Millipore, Bedford, Mass.) and quantitated using a scintillation counter (Packard, Meriden, Conn.). […]

FGFR = molecular target: T2, FGFR; test: in vitro FGFR kinase inhibition HTRF assay; format: biochemical; conditions: recombinant GST-tagged FGFR, 10 μM ATP, 37° C. 30 minutes
T2 construct: fused on or other part: GST tag
Procedure: To determine inhibition of FGFR activity, kinase assays were conducted using an HTRF (Homogeneous Time Resolved Fluorescence) assay. This assay is described in A. J. Kolb et. al., Drug Discovery Today, 1998, 3(7), p 333.
Prior to kinase reaction, recombinant GST-tagged FGFR enzyme was activated at room temperature for 1 hour in the following activation buffer: 100 mM HEPES, pH 7.4, 50 mM NaCl, 20 mM MgCl2, and 4 mM ATP.
Kinase activity assays were performed in 96-well polypropylene plates (Falcon) with a total volume of 90 μL in each well. Each well contained 1 μM substrate (Biotin-EEEEYFELV), 1.5 μM activated FGFR, and a test compound with one of 8 assay concentrations ranging from 100 μM to […] (1:5 serial dilution). The kinase activity assay was done in the presence of 100 mM HEPES, pH 7.4, 1 mM DTT, 0.1 mM Na2VO4, 0.4 mM MgCl2, 0.4 mM MnCl2, 50 mM NaCl (from KDR stock solution), 1% DMSO (from compound), 10 μM ATP (Km=8.5 μM for FGFR) and 0.02% BSA. The reaction was incubated at 37° C. for 30 minutes. To stop the FGFR reaction, 72 μL of reaction mixture was transferred into a STOP plate containing 18 μL of revelation buffer (20 mM EDTA, 50 mM HEPES, pH 7.4, 0.02% BSA, 10 nM Eu-labelled anti-p Y antibody (final conc. 2 nM), and 100 nM streptavidin (final conc. 20 nM)). After mixing, 35 μL of solution was transferred into duplicate wells of a 384-well black plate (Costar), and read at 615/665 nm on a Wallac Victor 5 reader.
Compound IC50 values were determined from duplicate sets of data, and calculated by using Excel and fitting data to equation Y=[(a−b)/{1+(X/c)^d]+b, where a and b are enzyme activity in the presence of no test inhibitor compound and an infinite amount of inhibitor test compound, respectively, c is the IC50 and d is the hill constant of the compound response. The IC50 value is the concentration of test compound that reduces by 50% the enzyme activity under the test conditions described. Compounds of the invention were active in the assay. Selected IC50 values are shown below.

T1 sequence (Q16539 whole entry): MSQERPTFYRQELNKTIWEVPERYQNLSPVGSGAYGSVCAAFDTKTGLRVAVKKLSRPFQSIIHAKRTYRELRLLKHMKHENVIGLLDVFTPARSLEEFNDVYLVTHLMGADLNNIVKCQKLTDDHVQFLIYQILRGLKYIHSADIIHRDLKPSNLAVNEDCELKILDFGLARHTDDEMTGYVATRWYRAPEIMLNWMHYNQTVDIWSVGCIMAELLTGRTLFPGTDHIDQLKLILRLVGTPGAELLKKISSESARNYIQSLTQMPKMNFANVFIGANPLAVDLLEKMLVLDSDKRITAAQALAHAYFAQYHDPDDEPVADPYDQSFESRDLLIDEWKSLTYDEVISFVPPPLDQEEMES

Row | IC50 (p38 MAP kinase) [µM] | melting point [°C] | IC50 (FGFR) [µM] | Structure (SMILES)
1 | – | – | 0.32 | CN1N=C(c2c(Cl)cccc2Cl)Oc2cnc(Nc3cccc(Cl)c3)nc21 [compound 7, [3-(2,6-Dichloro-phenyl)-1-methyl-1H-pyrimido[4,5-e][1,3,4]oxadiazin-7-yl]-(3-chloro-phenyl)-amine]
2 | – | – | 0.24 | CN1N=C(c2c(Cl)cccc2Cl)Oc2cnc(Nc3ccc(F)cc3)nc21 [compound 6, [3-(2,6-Dichloro-phenyl)-1-methyl-1H-pyrimido[4,5-e][1,3,4]oxadiazin-7-yl]-(4-fluoro-phenyl)-amine]
3 | – | 192.2 to 200.3 | – | CN1N=C(c2c(Cl)cccc2Cl)Oc2cnc(Nc3ccc(N4CCOCC4)cc3)nc21 [compound 29, [3-(2,6-dichlorophenyl)-1-methyl-1H-pyrimido[4,5-e][1,3,4]oxadiazin-7-yl]-(4-morpholin-4-yl-phenyl)amine]

Second part, the molecule before the results:

Row | Structure (SMILES) | IC50 (p38 MAP kinase) [µM] | melting point [°C] | IC50 (FGFR) [µM]
4 | CN1N=C(c2ccccc2Cl)Oc2cnc(NC3CCOCC3)nc21 [compound 1, 2-methyl-4-(2-chlorophenyl)-6-(tetrahydropyranyl-4-amino)-4H-1,3,4-pyrimido[4,5-e]oxadiazine] | 0.189 | 171 to 172.1 | –
5 | CN1N=C(c2c(Cl)cccc2Cl)Oc2cnc(Nc3ccccc3)nc21 [compound 5, [3-(2,6-dichlorophenyl)-1-methyl-1H-pyrimido[4,5-e][1,3,4]oxadiazin-7-yl]-phenyl-amine] | – | – | 0.18
6 | CN1N=C(c2ccccc2F)Oc2cnc(NC3CCOCC3)nc21 [compound 2] | 2.2 | – | –
